Several values for one entry are separate records, joined by “and”; a condition that tells them apart may be missing. Equal values may be shown once. Read-outs that look alike come from different tables or passages of the source.
Key:
[1] = test system: human plasma; conditions: human, plasma
Description: Three replicates were run per experiment, with 4NT included as a reference compound in each to evaluate assay performance. All PFAS and 4NT, prepared at a 3 mM working stock, were added to human plasma to achieve a final, thoroughly mixed assay concentration of 10 μM, incubated at 37 °C for 1 h with shaking. […] After UC, the aqueous fraction (AF; i.e., supernatant devoid of plasma proteins/lipoproteins/fatty acids) was collected and transferred to a new tube. The second aliquot maintained at 37 °C was collected (T5hr). At the relevant time points, each volume of sample was combined with 3 volumes of vigorously mixed ice-cold acetonitrile with the labeled IS and stored for 10 min at −20 °C prior to centrifugation at 12,000× g for 10 min at 4 °C. The supernatant was collected and stored at <−70 °C until quantitative analysis. […] Furthermore, chemical stability in plasma over the assay time course was assessed using the T1hr and T5hr samples.
Percent chemical remaining at the end of the UC assay (T5hr/T1hr) was used to remove unstable chemicals from further evaluation.

[2] = Abiotic loss in negative controls of the hepatocyte clearance assay (cell-free media, metabolically inactivated hepatocytes); type: in vitro ADME; conditions: flag for stability failure in hepatocyte clearance assay controls (1 or Fst = fail, 0 = pass)
Procedure, shortened: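 Abiotic stability was checked with media-only and inactivated-hepatocyte controls, run at T0 and T240 or, on rerun, at more time points. Compound at 1 μM, 37 °C, acetonitrile quench. Loss rates served for background subtraction, and ≥50% loss by T120 meant exclusion.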

[3] = test system: human plasma; experiment: Chemical stability in plasma over the UC assay time course (T5hr/T1hr); conditions: for Time 1 hr / Time 1 hr, Run-specific Avg: amount measured in plasma sample at 1 hr; for Time 1 hr / Time 5 hr: replicates A, B, C; for Time 1 hr / Time 1 hr, Run-specific Avg / Time 5 hr / Time 5 hr, Run-specific Avg: unit not given; for Time 1 hr, Run-specific Avg / Time 5 hr, Run-specific Avg: run average; for Time 5 hr / Time 5 hr, Run-specific Avg: amount measured in plasma sample at 5 hr; for % remaining_PPB: chemical remaining in plasma over the PPB assay time course, NS = no significant loss; for PPB_Stab_Fail: flag for stability failure in the plasma protein binding assay (1 = fail, 0 = pass); for Fstable.Med: median fraction stable in plasma, UC assay Level4
[4] = in vitro; conditions: both, human, plasma
[5] = test system: human plasma; experiment: Ultracentrifugation (UC) plasma protein binding assay, fraction unbound in plasma (fup); conditions: for Aqueous Fraction / Aqueous Fraction, Run-specific Avg: amount measured in aqueous fraction after ultracentrifugation, unit not given; for Aqueous Fraction: replicates A, B, C; for Aqueous Fraction, Run-specific Avg: run average; for Fup.Med: median fraction unbound in plasma; for Fup.Med / Fup.point: UC assay Level4; for Fup.point: point estimate of fraction unbound in plasma
[6] = Hepatic metabolic stability (hepatocyte clearance) assay, substrate depletion; type: in vitro ADME, human; conditions: both sexes, human, s9, Clint.1.Med
Excerpt: William’s Medium E (Gibco A1217601), dexamethasone, and cell maintenance cocktail B (Gibco CM4000) were obtained from Thermo Fisher Scientific (Waltham, MA, USA). Hepatosure OptiThaw media (P/N K8000; Lot No. 18–1–0322) was obtained from Sekisui Xenotech (Kansas City, KS, USA). Trypan blue solution (P/N 1450021) was obtained from Bio-Rad (Hercules, CA, USA). Pooled human cryopreserved primary hepatocyte suspensions were obtained from BioIVT (Westbury, NY, USA) and produced using nontransplantable tissue. The human 50-donor pool (mixed gender; Cat X0080005; Lot MYC), selected from BioIVT’s commercially available, prepooled lots, was selected following review of vendor-generated metabolic characterization information. Pooled, mixed-sex human plasma from de-identified donors was obtained from a commercial vendor that operates a U.S. Food and Drug Administration-licensed and inspected donor center (BioIVT bioivt.com (accessed 12 May 2023). Donors comprised five males and five females and ranged from 20 to 50 years of age. Plasma collected using anticoagulant K2EDTA was sterile-filtered ([…]) and stored at <−70 °C until use.
The hepatic metabolic stability assay measures the loss of a parent compound over time in a substrate-depletion approach. Briefly, hepatocyte suspensions, after a viability assessment, were diluted in complete William’s medium E (containing dexamethasone and cell maintenance cocktail B) prior to addition to 96-well polypropylene plates containing an equal volume of media spiked with the test compound (1 μM assay concentration; assay cell density = 50,000 cells/100 μL) and maintained at 37 °C with shaking. At each time point, relevant plates were crashed with an equal volume of ice-cold acetonitrile, centrifuged, and supernatant transferred to a new plate prior to storage at <−70 °C until quantitative analysis. Controls, run in parallel, included cell-free (i.e., media only) and metabolically inactivated hepatocytes to evaluate abiotic chemical stability in the aqueous media matrix with and without cellular protein. In preliminary runs, these controls were run at T0 and T240 only. If significant instability was noted, the hepatocyte clearance assay was rerun, including cell-free samples at each time point and metabolically inactivated hepatocytes at selected time points.
To process samples for quantitative analysis, samples were thawed and mixed. An aliquot of sample was removed and diluted in acetonitrile (1 part sample plus 9 parts acetonitrile) containing the relevant ISs selected for the PFAS being analyzed (See Table S2). The target at instrument concentration of each IS was 10 pg/μL.
The curves were generated using concentration/response ratios from the target analyte and IS, with either linear or quadratic regression models. The model and weighting, if necessary, were chosen to most accurately reflect the response of each compound and was evaluated by recalculating the individual calibration points using the curve. An acceptable model reflected an accuracy of ±30% of the theoretical value.
Hepatic metabolic clearance data were plotted in semi-log format (ln concentration vs. time) with three replicates at each time point, as previously described. […] The equations described below are used to calculate the chemical half-life (T½) and intrinsic in vitro clearance (Clin vitro) with units of μL/(min × million hepatocytes). In Equation (3), 2000 is a scalar used to adjust the assay cell number up to be consistent with units of 1 million cells in the Clint equation.
Negative controls, including media only and metabolically inactivated hepatocyte controls, were included to monitor abiotic loss (i.e., background clearance) during the assay. Where significant compound loss occurred using the analysis described above, background clearance rates were calculated and used to background-adjust hepatic metabolic clearance rates. […]

[7] = mean T5hr/T1hr ratio in plasma over all replicates/runs
[8] = Fraction Unbound (fu), Run-specific Avg, average of one UC run
[9] = Fraction Unbound (fu), individual replicates A, B, C of the UC run named in c8
[10] = Mean fu, fraction unbound in human plasma, ultracentrifugation, some values based on eLOQ
[11] = Mean Fu, mean fraction unbound in human plasma over all UC replicates/runs

Row | SMILES | Hep_Stab_Fail [2] | Time 1 hr [3] | Time 1 hr, Run-specific Avg [3] | Time 5 hr [3] | Time 5 hr, Run-specific Avg [3] | Stability (T5hr/ T1hr), Run-specific Avg ([3]; average of one UC run) | % remaining_PPB [3] | PPB_Stab_Fail [3] | Mean Stability [3, 7] | Fstable.Med [3] | fraction unbound [4, 8] | fraction unbound [4, 9] | fraction unbound [4, 10] | Aqueous Fraction [5] | Aqueous Fraction, Run-specific Avg [5] | Fup.Med [5] | Fup.point [5] | fraction unbound [4, 11] | other results
1 | C=CC(=O)OCCC(F)(F)C(F)(F)C(F)(F)C(F)(F)C(F)(F)C(F)(F)C(F)(F)C(F)(F)F [8:2 Fluorotelomer acrylate] | 1 | – | – | – | – | – | – | – | – | – | – | – | – | – | – | – | – | – | % remaining_PPB [1]: 0%; PPB_Stab_Fail [1]: 1
2 | FC(F)(I)C(F)(F)C(F)(F)C(F)(F)C(F)(F)C(F)(F)I [1,6-Diiodoperfluorohexane] | 1 | 8774.08 and 7745.84 and 7383.58 | 7967.83 | 5893.98 and 5567.71 and 5583.03 | 5730.84 | 0.719 | 72% | 0 | 0.718 | 0.577 | 0.0256 | 0.0161 | 0.026 | 94.9667 and 176.609 and 162.022 | 144.53 | 0.295 | 0.267 | – | Stability (T5hr/ T1hr), Run-specific Avg ([3]; average of one UC run (run date in line above)): 0.687; Mean Stability ([3]; mean T5hr/T1hr ratio over all replicates and runs, plasma): 0.685; Stability (T5hr/ T1hr), replicates A, B, C ([3]; single replicate of one UC run): 0.7185 and 0.686 and 0.6511; fraction unbound ([4]; Fraction Unbound (fu), Run-specific Avg, average of one UC run (run date in line above)): 0.36; fraction unbound ([4]; Mean Fu, mean fraction unbound over all replicates and runs, UC assay, human plasma): 0.361; Fraction Unbound (fu), replicates A, B, C ([5]; single replicate of one UC run (aqueous fraction / Time 5 hr)): 0.5494 and 0.308 and 0.227
3 | C=C(C)C(=O)OCC(F)(F)C(F)(F)C(F)(F)C(F)F [1H,1H,5H-Perfluoropentyl methacrylate] | 1 | 1599.93 and 1543.59 and 1278.91 | 1474.15 | 75.2443 and 72.767 and 69.0294 | 74.01 | 0.050 | 0.01% | 1 | 0.050 | 0.00623 | 0.25 | – | – | 25.8202 and 12.2631 and 16.0467 | 18.04 | 0.267 | 0.249 | 0.248 | –
4 | FC(F)(I)C(F)(F)C(F)(F)C(F)(F)I [Perfluoro-1,4-diiodobutane] | 1 | 1436.94 and 1194.41 and 1213.84 | 1281.73 | 860.037 and 995.998 and 977.671 | 928.02 | 0.724 | – | 0 | 0.740 | 0.11 | 0.00546 | 0.00698 | 0.0055 | 6.005 and 3.594 and 5.646 | 5.08 | 0.00723 | 0.00533 | 0.00546 | –
5 | CCNc1nc(NC(C)C)nc(SC)n1 [Ametryn, reference compound] | – | – | – | – | – | – | – | – | – | – | – | – | – | – | – | – | – | – | hepatocyte CLint at 1 μM [6]: 14.7 µL/min/1e6 cells
